According to patent publication US5770574A, “Long-chain alkylamides of amino acids and peptides with anti-proliferative and anti-inflammatory properties” (ASTA Medica Aktiengesellschaft, priority 1994, dated 1998):

Experiments:
[1] = test system: L1210 mouse leucemia; assay: inhibition of colony formation in soft agar (colony assay), L1210; assay type: cell-based; conditions: for Cytotoxicity in vitro EC90 L 1210: concentration giving 90% inhibition of colony formation, determined by graph, 6 days incubation; for activity against L 1210 cells (ranking in words): among the compounds of the table
Experimental: (§1) The effectiveness of the compounds defined in accordance with the invention was tested as to their in vitro cytotoxicity. The investigations about inhibition of colony formation in soft agar (colony assay) were carried out in conformity with the method of Hamburger and Salmon (A. W. Hamburger, S. E. Salmon, "Primary Bioassay of Human Myeloma Stem Cells", J. Clin. Invest. 60: 846-854 (1977); A. W. Hamburger and S. E. Salmon, "Primary Bioassay of Human Tumor Stem Cells", Science 197: 461-463 (1977)). The tumor cells were incubated in RPMI-1640 medium with 20% fetal calf serum and 0.3% agar in the presence of different concentrations of the test substance at 37° C., 95% relative air humidity and 5% CO2. Triple values were taken in each instance. The incubation time was 6 days for L1210 mouse leucemia and 8 days for KB human mucous-membrane carcinoma. The colonies formed (>50 cells) were subsequently counted.

[2] = test system: KB human mucous-membrane carcinoma; assay: inhibition of colony formation in soft agar (colony assay), KB; assay type: cell-based; conditions: for Cytotoxicity in vitro EC90 KB: concentration giving 90% inhibition of colony formation, determined by graph, 8 days incubation; for activity against KB cells (ranking in words): among the compounds of the table
Experimental: as §1

[3] = test system: small-cell bronchial carcinoma LXFS 538; assay: human tumors transplanted into the naked mouse, LXFS 538; assay type: in vivo; conditions: LXFS 538 xenograft, 45 mg/kg i.p. per day 1.5 and 9
Experimental: (§2) The compound H-LYS(LYS)-NHC18 H37.3HCL (D-21621) was tested separately on human tumors transplanted into the naked mouse. […] This tumor is resistant to all standard cytostatic agents.

[4] = test system: ovarian carcinoma OVXF 899; assay: human tumors transplanted into the naked mouse, OVXF 899; assay type: in vivo; conditions: OVXF 899 xenograft, same conditions (45 mg/kg i.p. per day 1.5 and 9)
Experimental: as §2

CCCCCCCCCCCCCCCCCCNC(=O)C(N)CCCNC(=O)C(N)CCCN.Cl.Cl.Cl [D-20 989, H--ORN(ORN)--NHC18 H37.3HCL]
Cytotoxicity in vitro EC90 L 1210 [1]: 3.1 µg/mL
Cytotoxicity in vitro EC90 KB [2]: 1.3 µg/mL

Br.Br.Br.CCCCCCCCCCCCCCCCCCNC(=O)C(N)CCCCNC(=O)C(N)CCCCN [D-20 994, H--LYS(LYS)--NHC18 H37.3HBr]
Cytotoxicity in vitro EC90 L 1210 [1]: 3.2 µg/mL
activity against KB cells (ranking in words) [2]: highest activity
Cytotoxicity in vitro EC90 KB [2]: 0.8 µg/mL

CCCCCCCCCCCCCCCCCCNC(=O)C(N)CCCCNC(=O)C(N)CCCCN.Cl.Cl.Cl [D-21 621, H--LYS(LYS)--NHC18 H37.3HCl]
Cytotoxicity in vitro EC90 L 1210 [1]: 2.2 µg/mL
Cytotoxicity in vitro EC90 KB [2]: 1.4 µg/mL
tumor inhibition [3]: 37 % of the control
tumor inhibition [4]: 46 % of the control

CCCCCCCCCCCCCCNC(=O)C1CSCN1 [D-21 979, H--THZ--NHC14 H29]
activity against L 1210 cells (ranking in words) [1]: highest activity
Cytotoxicity in vitro EC90 L 1210 [1]: 0.3 µg/mL
Cytotoxicity in vitro EC90 KB [2]: 3.1 µg/mL

CCCCCCCCCCCCCCCCNC(=O)C1CSCN1 [D-21 980, H--THZ--NHC16 H33]
Cytotoxicity in vitro EC90 L 1210 [1]: 3.4 µg/mL
Cytotoxicity in vitro EC90 KB [2]: 3.1 µg/mL

CCCCCCCCCCCCCCCCCCNC(=O)C(CCCCN)NC(=O)C(N)CCCCN [D-22 267, H--LYS--LYS--NHC18 H37]
Cytotoxicity in vitro EC90 L 1210 [1]: 3.1 µg/mL
activity against KB cells (ranking in words) [2]: highest activity
Cytotoxicity in vitro EC90 KB [2]: 0.3 µg/mL

CCCCCCCCCCCCCCCCCCNC(=O)[C@H](N)CCCCNC(=O)[C@H](N)CCCCN.Cl.Cl.Cl [D-22 628, H--D--LYS(D--LYS)--NHC18 H37.3HCL]
activity against L 1210 cells (ranking in words) [1]: highest activity
Cytotoxicity in vitro EC90 L 1210 [1]: 0.8 µg/mL
Cytotoxicity in vitro EC90 KB [2]: 1.1 µg/mL

H--LYS[(LYS)LYS]--NHC18 h37.4HBr [D-20 995]
Cytotoxicity in vitro EC90 L 1210 [1]: > 3 µg/mL
activity against KB cells (ranking in words) [2]: highest activity
Cytotoxicity in vitro EC90 KB [2]: 0.9 µg/mL

H--ORN[(ORN)ORN]--NHC18 H37 4HCl [D-20 990]
Cytotoxicity in vitro EC90 L 1210 [1]: > 10 µg/mL
Cytotoxicity in vitro EC90 KB [2]: 1.7 µg/mL
